Measurements from Sander's compilation of Henry's law constants (doi:10.1007/bf00479396).

Assay: Henry solubility constant Hcp at 293 K (mol/(m3 Pa))
Conditions: reference: Tremp et al. (1993)

Structure (SMILES) | Henry solubility constant Hcp at 293 K
Cc1ccccc1O [1-hydroxy-2-methylbenzene] | 7.1
Cc1ccc(O)cc1 [1-hydroxy-4-methylbenzene] | 13
O=[N+]([O-])c1ccc(O)c([N+](=O)[O-])c1 [2,4-dinitrophenol] | 110
O=[N+]([O-])c1ccccc1O [2-nitrophenol] | 0.77
Cc1cc(O)ccc1[N+](=O)[O-] [3-methyl-4-nitrophenol] | 620
CCC(C)c1ccc(O)c([N+](=O)[O-])c1 (configuration not stated) [4-(1-methylpropyl)-2-nitrophenol] | 0.1
COc1ccc(O)c([N+](=O)[O-])c1 [4-methoxy-2-nitrophenol] | 5.3
Cc1ccc(O)c([N+](=O)[O-])c1 [4-methyl-2-nitrophenol] | 0.67
O=[N+]([O-])c1ccc(O)cc1 [4-nitrophenol] | 770
O=[N+]([O-])c1ccc(F)cc1O [5-fluoro-2-nitrophenol] | 0.5
Cc1ccc([N+](=O)[O-])c(O)c1 [5-methyl-2-nitrophenol] | 0.77
Cc1cccc([N+](=O)[O-])c1O [6-methyl-2-nitrophenol] | 0.29
